Laboratory results published in ChEMBL document CHEMBL1147869, “Computational approach to the basicity of a series of alpha1-adrenoceptor ligands in aqueous solution” (Bioorg Med Chem, 2007).

Assay: Dissociation constant, pKa of the compound
Assay type: physicochemical

Row | pKa | Compound
1 | 9.8 | c1cc(NC2=NCCN2)ccc1Cc1ccc(NC2=NCCN2)cc1
2 | 9.4 | N=C(N)Nc1ccc(C(=O)c2ccc(NC(=N)N)cc2)cc1
3 | 10.8 | N=C(N)Nc1ccc(Nc2ccc(NC(=N)N)cc2)cc1
4 | 10.5 | N=C(N)Nc1ccc(Cc2ccc(NC(=N)N)cc2)cc1

Continued, compound first:

Row | Compound | pKa
5 | NC[C@H](O)c1ccc(O)c(O)c1 [NOREPINEPHRINE] | 8.58
6 | O=C(c1ccc(NC2=NCCN2)cc1)c1ccc(NC2=NCCN2)cc1 | 8.6
7 | COc1cc2nc(N3CCN(C(=O)C4COc5ccccc5O4)CC3)nc(N)c2cc1OC (centres undefined) [DOXAZOSIN] | 6.9
8 | CNC[C@H](O)c1ccc(O)c(O)c1 [EPINEPHRINE] | 8.59
9 | c1cc(Nc2ccc(NC3=NCCN3)cc2)ccc1NC1=NCCN1 | 9.9
